From patent US9849131B2 (AUTIFONY THERAPEUTICS LIMITED, priority 2009, dated 2017)

Columns and labels:
Male CD-1 mice = experiment: Psychostimulant (amphetamine)-induced hyperactivity in mice (Example 93); conditions: mouse
hKv3.2 = target: T1, hKv3.2 (Homo sapiens, UniProt Q96PR1); experiment: IonWorks Quattro assay, secondary analysis of activation time constant (Tauact); format: cell-based; conditions: for acts as positive or negative modulator of Kv3.1 and/or Kv3.2: classification from effect on Tauact; for effect on the value of Tauact compared to the vehicle control: vehicle DMSO 0.5%
T1 construct: expressed in transfected cells; host or cells: CHO-K1
T1 sequence (Q96PR1 1-638): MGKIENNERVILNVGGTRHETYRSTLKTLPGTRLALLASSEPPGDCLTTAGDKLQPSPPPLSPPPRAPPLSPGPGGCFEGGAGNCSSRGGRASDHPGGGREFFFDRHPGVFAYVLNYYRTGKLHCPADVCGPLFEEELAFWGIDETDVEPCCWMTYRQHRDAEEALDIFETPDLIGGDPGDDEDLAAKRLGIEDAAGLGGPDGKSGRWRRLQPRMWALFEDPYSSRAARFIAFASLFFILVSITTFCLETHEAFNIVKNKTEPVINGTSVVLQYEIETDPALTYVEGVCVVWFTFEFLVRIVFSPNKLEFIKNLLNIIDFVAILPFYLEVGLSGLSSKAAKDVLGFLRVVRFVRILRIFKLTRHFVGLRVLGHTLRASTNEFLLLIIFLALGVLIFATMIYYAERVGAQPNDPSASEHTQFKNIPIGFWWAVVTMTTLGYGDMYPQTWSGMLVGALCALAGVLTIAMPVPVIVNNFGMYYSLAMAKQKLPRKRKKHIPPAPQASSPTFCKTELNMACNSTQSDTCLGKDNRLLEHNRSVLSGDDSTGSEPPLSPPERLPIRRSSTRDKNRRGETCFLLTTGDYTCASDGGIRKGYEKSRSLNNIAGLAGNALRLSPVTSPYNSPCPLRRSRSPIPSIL
Protocol: A stable cell line expressing human Kv3.2 channels (hKv3.2) was created by transfecting Chinese Hamster Ovary (CHO)-K1 cells with a pCIH5-hKv3.2 vector. Cells were cultured in DMEM/F12 medium supplemented by 10% Foetal Bovine Serum, 1× non-essential amino acids (Invitrogen) and 500 ug/ml of Hygromycin-B (Invitrogen). Cells were grown and maintained at 37° C. in a humidified environment containing 5% CO2 in air.
The day of the experiment, cells were removed from the incubator and the culture medium removed. Cells were washed with 5 ml of Dulbecco's PBS (DPBS) calcium and magnesium free and detached by the addition of 3 ml Versene (Invitrogen, Italy) followed by a brief incubation at 37° C. for 5 minutes. The flask was tapped to dislodge cells and 10 ml of DPBS containing calcium and magnesium was added to prepare a cell suspension. The cell suspension was then placed into a 15 ml centrifuge tube and centrifuged for 2 min at 1200 rpm. After centrifugation, the supernatant was removed and the cell pellet re-suspended in 4 ml of DPBS containing calcium and magnesium using a 5 ml pipette to break […] up the pellet. Cell suspension volume was then corrected to give a cell concentration for the assay of approximately 3 million cells per ml.
Experiments were conducted at room temperature using IonWorks Quattro™ planar array electrophysiology technology (Molecular Devices Corp.) with PatchPlate™ PPC. Stimulation protocols and data acquisition were carried out using a microcomputer (Dell Pentium 4). Planar electrode hole resistances (Rp) were determined by applying a 10 mV voltage step across each well. These measurements were performed before cell addition. […] Following this, amphotericin-B solution was added to the intracellular face of the electrode to achieve intracellular access. Cells were held at −70 mV. Leak subtraction was conducted in all experiments by applying 50 ms hyperpolarizing (10 mV) prepulses to evoke leak currents followed by a 20 ms period at the holding potential before test pulses. From the holding potential of −70 mV, a first test pulse to −15 mV was applied for 100 ms and following a further 100 ms at −70 mV, a second pulse to 40 mV was applied for 50 ms. Cells were then maintained for a further 100 ms at −100 mV and then a voltage ramp from −100 mV to 40 mV was applied over 200 ms. In all experiments, the test pulses protocol was performed in the absence (pre-read) and presence (post-read) of the test compound. Pre- and post-reads were separated by the compound addition followed by a 3 minute incubation.
The magnitude of the effect of a compound can be determined from the time constant (Tauact) obtained from a non-linear fit, using the equation given below, of the rise in Kv3.1 or Kv3.2 currents following the start of the depolarising voltage pulse. Y=(Y0−Ymax)*exp(−K*X)+Ymax
Where: • Y0 is the current value at the start of the depolarising voltage pulse; • Ymax is the plateau current;
K is the rate constant, and Tauact is the activation time constant, which is the reciprocal of K.

[1] = tested on: fast-firing interneurons in the somatosensory cortex; experiment: Recordings from fast-firing interneurons driven by high frequency current pulse trains (FIG. 2); format: cell-based, mouse; conditions: 1 microM; trains of depolarising current pulses at 100, 200, 300 Hz; n=6
Source text: Kv3.1 and Kv3.2 channels must activate and deactivate very rapidly in order to allow neurons to fire actions potentials at high frequency (Rudy and McBain, 2001, Trends in Neurosciences 24, 517-526). Slowing of activation will delay the onset of action potential repolarisation; slowing of deactivation will lead to hyperpolarising currents that reduce the excitability of the neuron and delay the time before the neuron can fire a further action potential. Together these two slowing effects will lead to a reduction rather than a facilitation of the neurons ability to fire at high frequencies. […] This latter effect can be observed from recordings made from “fast-firing” interneurons in the cortex of rat brain, using electrophysiological techniques, in vitro (FIG. 2).
The neurons are induced to fire at high frequencies by trains of high frequency depolarising current pulses at 100, 200, and 300 Hz. The ability of the neuron to fire an action potential on each pulse is determined. […] In the absence of drug (closed circles, n=9), the neurons maintained a spike probability of 1 up to 300 Hz.

[2] = tested on: parvalbumin-positive interneurons in the somatosensory cortex; experiment: Firing of parvalbumin-positive interneurons in somatosensory cortex slices, in vitro (Example 90); format: cell-based, mouse; conditions: TEA 0.5 mM vs control slices; at least 1 hour incubation
[3] = tested on: high voltage-activated potassium currents in MNTB neurons (presumed to be mediated by Kv3.1 channels); experiment: Potassium currents recorded from MNTB neurons, in vitro (Example 91); format: cell-based, mouse; conditions: TEA 1 mM; voltage steps to +40 mV
Protocol: Male CBA/Ca mice (aged 12-16 days) were used in these experiments (in accordance with the UK Animals Scientific Procedures Act, 1986). Brain slices containing the medial nucleus of the trapezoid body (MNTB) were prepared as described previously (Brew and Forsythe, 2005).
Chemicals and reagents were purchased from Sigma, (Poole, UK) unless otherwise noted. EXAMPLE 19 was dissolved in DMSO and diluted in ACSF to the required concentration.
Recordings from identified MNTB neurons were conducted as previously described (Brew and Forsythe, 2005). Slices was placed in a superfusion chamber on an inverted microscope stage and continuously perfused with gassed (95% O2-5% CO2) ACSF at a rate of 1 ml min^−1 at room temperature. Whole-cell recordings were made from visually identified MNTB neurons using an […] amplifier (Molecular Devices, Union City, Calif., USA). Patch solution comprised (in mM) potassium gluconate (97.5), KCl (32.5), Hepes (40), EGTA (5), MgCl2 (1), Na2 phosphocreatin (5), pH 7.2 with KOH. Pipettes had resistances of 3-5 MΩ and series resistances were 6-10 MΩ (compensated by 70%, 10 μs lag). Access resistance was frequently monitored and the recording discarded if increases were more than 2 MΩ. […]

Compound	acts as positive or negative modulator of Kv3.1 and/or Kv3.2 (hKv3.2)	also measured
CC(N)Cc1ccccc1 (stereo not shown) [Amphetamine, amphetamine, reference compound]		Total Distance Travelled (cm) (Male CD-1 mice; amphetamine 2.0 mg/kg i.p. alone, 60 minutes, mean ± sem): 16304 ± 3309 cm; effect on total distance travelled (Male CD-1 mice; amphetamine alone 2 mg/kg i.p.): large and significant increase
CC[C@@]1(C)NC(=O)N(c2ccc(Oc3ccc(C)c(OC)c3)nc2)C1=O [Example 30, (5R)-5-ethyl-5-methyl-3-(6-{[4-methyl-3-(methyloxy)phenyl]oxy}-3-pyridinyl)-2,4-imidazolidinedione]	positive modulators	
CC[C@H]1NC(=O)N(c2ccc(Oc3ccc(C#N)cc3C3CC3)nc2)C1=O [Example 70, 3-cyclopropyl-4-({5-[(4R)-4-ethyl-2,5-dioxo-1-imidazolidinyl]-2-pyridinyl}oxy)benzonitrile]	positive modulators	
CC[C@H]1NC(=O)N(c2ccc(Oc3ccc(C#N)cc3C(C)(C)C)nc2)C1=O [Example 71, 3-(1,1-dimethylethyl)-4-({5-[(4R)-4-ethyl-2,5-dioxo-1-imidazolidinyl]-2-pyridinyl}oxy)benzonitrile]	negative modulators	effect on the value of Tauact compared to the vehicle control (hKv3.2; hKv3.2): markedly increase
CC[C@H]1NC(=O)N(c2ccc(Oc3ccc(C#N)c(C4CC4)c3)nc2)C1=O [Example 76, 2-cyclopropyl-4-({5-[(4R)-4-ethyl-2,5-dioxo-1-imidazolidinyl]-2-pyridinyl}oxy)benzonitrile]	positive modulators	Tauact mean (hKv3.2; hKv3.2, step to −15 mV, compound 3.1 μM (concentration giving ~0.3 nA current)): 7.6 ms
CC[C@H]1NC(=O)N(c2ccc(Oc3ccc(C#N)c(C(C)C)c3)nc2)C1=O [Example 77, 4-({5-[(4R)-4-ethyl-2,5-dioxo-1-imidazolidinyl]-2-pyridinyl}oxy)-2-(1-methylethyl)benzonitrile]	positive modulators	
CCc1cc(Oc2ccc(N3C(=O)N[C@H](CC)C3=O)cn2)ccc1C#N [Example 78]	positive modulators	
CC[C@H]1NC(=O)N(c2ccc(Oc3ccc(C#N)c(OC(C)C)c3)nc2)C1=O [Example 80, 4-({5-[(4R)-4-ethyl-2,5-dioxo-1-imidazolidinyl]-2-pyridinyl}oxy)-2-[(1-methylethyl)oxy]benzonitrile]	positive modulators	
CC[C@H]1NC(=O)N(c2ccc(Oc3ccc(C#N)c(OC(F)(F)F)c3)nc2)C1=O [Example 82, 4-({5-[(4R)-4-ethyl-2,5-dioxo-1-imidazolidinyl]-2-pyridinyl}oxy)-2-[(trifluoromethyl)oxy]benzonitrile]	positive modulators	
CC[C@H]1NC(=O)N(c2ccc(Oc3cccc4c3C3(CC3)CO4)nc2)C1=O [Example 87, (5R)-5-ethyl-3-[6-(spiro[1-benzofuran-3,1′-cyclopropan]-4-yloxy)-3-pyridinyl]-2,4-imidazolidinedione]	negative modulators	effect on the value of Tauact compared to the vehicle control (hKv3.2; hKv3.2): markedly increase; ability of neurons to fire an action potential on each pulse (spike probability) [1]: unable to follow trains at the highest frequency
CC1(C)NC(=O)N(c2ccc(Oc3cccc4c3C3(CC3)CO4)nc2)C1=O [Example 88, 5,5-dimethyl-3-[6-(spiro[1-benzofuran-3,1′-cyclopropan]-4-yloxy)-3-pyridinyl]-2,4-imidazolidinedione]	negative modulators	effect on the value of Tauact compared to the vehicle control (hKv3.2; hKv3.2): markedly increase
CC[N+](CC)(CC)CC [TEA, tetraethylammonium, reference compound]		maximal frequency of action potential firing in response to step currents [2]: lower maximal frequency; amplitude of outward high voltage-activated potassium currents [3]: significantly reduced
